# Values of other authors, collected in patent US20160106677A1, “PHARMACEUTICAL COMPOSITION AND USES THEREOF” (Boehringer Ingelheim International GmbH, priority 2014, published 2016).
# Tested on: HbA1c
# Conditions: metformin on its own, in the diabetic
smiles,measurement,value
CN(C)C(=N)N=C(N)N [metformin],average improvement in the HbA1c value,1.0-1.5%
